In publication PMC9224512, “New Insights into the Determinants of Specificity in Human Type I Arginase: Generation of a Mutant That Is Only Active with Agmatine as Substrate” (International Journal of Molecular Sciences, 2022):
Residue numbers refer to the chain shown, from its start.

Key:
[1] = biological target: T1, type I human arginase D181T/V182E (Homo sapiens, UniProt P05089, D181T/V182E); assay: Kinetic and inhibition studies, D181T/V182E double mutant; format: biochemical; settings: substrate arginine
T1 construct: made in house; host or cells: E. coli JM109
T1 sequence (P05089 1-322 D181T/V182E): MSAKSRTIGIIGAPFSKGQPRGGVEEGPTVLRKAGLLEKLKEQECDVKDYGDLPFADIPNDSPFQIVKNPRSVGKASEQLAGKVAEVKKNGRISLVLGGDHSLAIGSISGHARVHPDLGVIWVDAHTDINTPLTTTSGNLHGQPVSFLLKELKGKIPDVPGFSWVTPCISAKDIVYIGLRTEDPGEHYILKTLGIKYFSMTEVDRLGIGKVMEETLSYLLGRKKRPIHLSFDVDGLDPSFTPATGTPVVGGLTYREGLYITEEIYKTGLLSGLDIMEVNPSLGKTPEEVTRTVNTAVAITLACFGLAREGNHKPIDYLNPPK
Description: (§1) Bacterial cultures were grown with shaking at 37 °C in Luria Broth media, in the presence of ampicillin (100 μg/mL). The wild-type and mutant human liver arginase cDNAs were directionally cloned into the pBluescript II KS(+) expression vector and then expressed in E. coli JM109, following induction with 1 mM isopropyl β-D-thiogalactopyranoside. The bacterial cells were disrupted by sonication on ice (5 × 30 s pulses), centrifuged for 20 min at 12,000× g, and the obtained supernatant was precipitated with ammonium sulfate (60% saturation). The pellet, collected by centrifugation at 12,000× g for 10 min, was re-suspended in buffer 5 mM Tris–HCl (pH 7.5) containing 2 mM MnCl2 and dialyzed for 6 h at 4 °C against the same buffer. After incubation with 5 mM MnCl2 for 10 min at 60 °C, the enzyme variants were purified as previously described. The purity of the enzymes was evaluated by SDS–PAGE stained by Coomassie blue and immunodetection using an anti- rat arginase I antibody.
(§2) The single, double, triple, and chimera variants of human arginase type I were obtained by PCR, using the QuickChange site-directed mutagenesis kit (Stratagene, La Jolla, CA, USA); the plasmid pBluescript II KS(+) containing the human liver arginase cDNA was used as template. To obtain the chimeric species of human arginase type I, serial mutations were made in each loop to be modified, using as template DNA the wild-type arginase gene or the previous done mutation, subcloned in the plasmid pBluescript II KS (+). Specifically, the residues present in the arginase structure were replaced by those corresponding to the agmatinase sequence of E. coli.
(§3) All assays were initiated by adding the enzyme to a previously equilibrated buffer with the substrate in solution (the concentrations of used substrates were between 0.2–3 fold the Km). Urea was determined by a colorimetric method with α-isonitrosopropiophenone. The protein concentrations were determined by the Bradford’s method, with bovine serum albumin as standard. Initial velocity and enzymatic inhibition experiments were performed in duplicate and repeated three times. The inhibitory patterns were initially determined by double reciprocal plots and re-plots of intercepts and slopes versus inhibitor concentrations. […] Velocities are expressed as μmol of urea/10 min.

[2] = biological target: T2, Chimera A2 (I129T/N130Y/T131A+∆ P132-T134) of human arginase type I (Homo sapiens, UniProt P05089, DEL129-131/I129T/L133Y/N130Y/P132T/T134A); assay: Kinetic and inhibition studies, Chimera A2; format: biochemical; settings: substrate agmatine
T2 construct: made in house; host or cells: E. coli JM109
T2 sequence (P05089 with tags, fused parts or gaps DEL129-131/P132T/L133Y/T134A): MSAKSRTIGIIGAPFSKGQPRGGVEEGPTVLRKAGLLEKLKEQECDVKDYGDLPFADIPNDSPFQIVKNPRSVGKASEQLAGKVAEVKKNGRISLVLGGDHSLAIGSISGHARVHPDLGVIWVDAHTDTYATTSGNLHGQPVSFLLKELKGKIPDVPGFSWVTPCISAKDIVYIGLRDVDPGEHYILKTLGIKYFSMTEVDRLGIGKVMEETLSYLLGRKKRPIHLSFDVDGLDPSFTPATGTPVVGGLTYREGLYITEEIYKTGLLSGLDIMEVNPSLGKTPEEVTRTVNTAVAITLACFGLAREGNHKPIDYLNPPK
Description: as §1, §2, §3

[3] = biological target: T3, type I human arginase D181T (Homo sapiens, UniProt P05089, D181T); assay: Kinetic and inhibition studies, D181T mutant; format: biochemical; settings: substrate arginine
T3 sequence (P05089 1-322 D181T): T1 sequence (P05089 1-322 D181T/V182E) with E182V
Description: as §1, §2, §3

[4] = biological target: T4, type I human arginase D181T/V182E + ins F (Homo sapiens, UniProt P05089, D181E/D181T/INS180T/V182E/V182F); assay: Kinetic and inhibition studies, D181T/V182E + ins F; format: biochemical; settings: substrate arginine
T4 sequence (P05089 with tags, fused parts or gaps INS180T/D181E/V182F): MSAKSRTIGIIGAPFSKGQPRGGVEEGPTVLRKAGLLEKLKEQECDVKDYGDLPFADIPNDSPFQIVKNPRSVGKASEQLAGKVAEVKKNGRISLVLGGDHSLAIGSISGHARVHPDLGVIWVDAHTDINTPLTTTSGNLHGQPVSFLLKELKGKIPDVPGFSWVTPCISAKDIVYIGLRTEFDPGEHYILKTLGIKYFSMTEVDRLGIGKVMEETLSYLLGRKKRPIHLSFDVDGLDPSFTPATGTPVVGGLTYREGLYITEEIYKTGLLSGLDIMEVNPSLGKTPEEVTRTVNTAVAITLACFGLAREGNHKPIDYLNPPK
Description: as §1, §2, §3

[5] = biological target: T5, WT-arginase (human arginase type I) (Homo sapiens, UniProt P05089); assay: Kinetic and inhibition studies, wild-type human arginase type I; format: biochemical; settings: for Inhibition type / Kis (Ki): substrate arginine
T5 construct: made in house; host or cells: E. coli JM109
T5 sequence (P05089 1-322): T1 sequence (P05089 1-322 D181T/V182E) with T181D, E182V
Description: as §1, §3

[6] = biological target: T6, Chimera A1 (I129T/N130Y/T131A) of human arginase type I (Homo sapiens, UniProt P05089, I129T/N130Y/T131A); assay: Kinetic and inhibition studies, Chimera A1; format: biochemical; settings: substrate arginine
T6 sequence (P05089 1-322 I129T/N130Y/T131A): T1 sequence (P05089 1-322 D181T/V182E) with I129T, N130Y, T131A, T181D, E182V
Description: as §1, §2, §3

[7] = biological target: T7, type I human arginase V182E (Homo sapiens, UniProt P05089, V182E); assay: Kinetic and inhibition studies, V182E mutant; format: biochemical; settings: substrate arginine
T7 sequence (P05089 1-322 V182E): T1 sequence (P05089 1-322 D181T/V182E) with T181D
Description: as §1, §2, §3

rat liver arginase = tested on: rat liver arginase; set-up: method as in PMID 8031143; settings: substrate agmatine; cited from earlier work
[8] = biological target: T8, human arginase type I N139D (Homo sapiens, UniProt P05089, N139D); assay: Kinetic and inhibition studies, N139D mutant; format: biochemical; settings: arginine 5 mM, pH 9.5; Figure 3A
T8 sequence (P05089 1-322 N139D): T1 sequence (P05089 1-322 D181T/V182E) with N139D, T181D, E182V
Description: as §1, §2, §3

E. coli agmatinase = biological target: T9, E. coli agmatinase (Escherichia coli, UniProt P60651); assay: Kinetic studies, E. coli agmatinase; format: biochemical; settings: substrate = labelled compound; n/a = no activity with the substrate
T9 sequence (P60651 1-306): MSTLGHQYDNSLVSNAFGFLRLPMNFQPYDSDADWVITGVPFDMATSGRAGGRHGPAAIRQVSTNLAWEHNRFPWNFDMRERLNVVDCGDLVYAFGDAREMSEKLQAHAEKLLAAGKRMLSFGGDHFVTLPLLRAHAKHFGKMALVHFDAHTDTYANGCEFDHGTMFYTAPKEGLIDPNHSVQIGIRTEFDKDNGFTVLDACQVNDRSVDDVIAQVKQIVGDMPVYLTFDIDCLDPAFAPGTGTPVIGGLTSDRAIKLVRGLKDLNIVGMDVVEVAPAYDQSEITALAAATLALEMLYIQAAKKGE
Description: as §3

[9] = biological target: T10, human arginase type I S137C (Homo sapiens, UniProt P05089, S137C); assay: Kinetic and inhibition studies, S137C mutant; format: biochemical; settings: arginine 5 mM, pH 9.5; Figure 3A
T10 sequence (P05089 1-322 S137C): T1 sequence (P05089 1-322 D181T/V182E) with S137C, T181D, E182V
Description: as §1, §2, §3

[10] = biological target: T11, human arginase type I N130D (Homo sapiens, UniProt P05089, N130D); assay: Kinetic and inhibition studies, N130D mutant; format: biochemical; settings: arginine 5 mM, pH 9.5; Figure 3A
T11 sequence (P05089 1-322 N130D): T1 sequence (P05089 1-322 D181T/V182E) with N130D, T181D, E182V
Description: as §1, §2, §3

Row | SMILES | Inhibition type [1] | Inhibition type [2] | Kis (Ki) [1] | Inhibition type [3] | Kis [3] | Kis [2] | Inhibition type [4] | Kis [4] | Inhibition type [5] | Kis (Ki) ([5]; pH 9.5) | Inhibition type [6] | Kis (Ki) [6] | Inhibition type [7] | Kis [7] | kcat, times lower than for arginine (rat liver arginase) | Inhibition of arginase activity by agmatine [8] | kcat (E. coli agmatinase) | Inhibition of arginase activity by agmatine [9] | Inhibition of arginase activity by agmatine ([5]; arginine 5 mM, pH 9.5, Figure 3A) | Inhibition of arginase activity by agmatine [10]
1 | NCCCCN [Putrescine, putrescine] | competitively inhibited | competitive | – | – | – | – | – | – | – | – | – | – | – | – | – | – | – | – | – | –
2 | N=C(N)N [Guanidine, guanidine] | Competitive | linear competitive inhibition | 80 ± 5 mM | Competitive | 85 ± 10 mM | 40 ± 6 mM | Competitive | 70 ± 10 mM | Competitive | 56 ± 4 mM | Competitive | 38 ± 6 mM | Competitive | 89 ± 12 mM | – | – | – | – | – | –
3 | NCCCC[C@H](N)C(=O)O [Lysine, lysine] | competitively inhibited | – | 42 mM | – | – | – | – | – | – | 5 mM | – | – | – | – | – | – | – | – | – | –
4 | N=C(N)NCCCCN [Agmatine, 1-amino-4-guanidinobutane] | – | – | – | – | – | – | – | – | Competitive | 42 ± 5 mM | Competitive | 27 ± 2 mM | – | – | approximately 5000 times | markedly sensitive | 120 ± 10 s⁻¹ | markedly sensitive | poorly inhibited | markedly sensitive
